Results on 18 compounds are retold here after ChEMBL document CHEMBL1135247, “Benzimidazoles and isosteric compounds as potent and selective factor Xa inhibitors” (Bioorg Med Chem Lett, 2002).

Test [1] addresses T1, Coagulation factor X (Homo sapiens, UniProt P00742). The test can be described thus: Inhibition of Coagulation factor Xa.
Test [2] addresses Vitamin K-dependent protein C (Homo sapiens, UniProt P04070). The test can be described thus: Tested for inhibitory activity against Activated protein C.
The target of test [3] is T1, Coagulation factor X. The test can be described thus: Tested for inhibitory activity against Coagulation factor Xa.
Test [4] has as its target Plasminogen (Homo sapiens, UniProt P00747). Kind of test: Tested for inhibitory activity against plasmin.
The target in test [5] is Tissue-type plasminogen activator (Homo sapiens, UniProt P00750). The test can be described thus: Tested for inhibitory activity against Tissue plasminogen activator.
Chain of Tissue-type plasminogen activator (P00750 whole entry): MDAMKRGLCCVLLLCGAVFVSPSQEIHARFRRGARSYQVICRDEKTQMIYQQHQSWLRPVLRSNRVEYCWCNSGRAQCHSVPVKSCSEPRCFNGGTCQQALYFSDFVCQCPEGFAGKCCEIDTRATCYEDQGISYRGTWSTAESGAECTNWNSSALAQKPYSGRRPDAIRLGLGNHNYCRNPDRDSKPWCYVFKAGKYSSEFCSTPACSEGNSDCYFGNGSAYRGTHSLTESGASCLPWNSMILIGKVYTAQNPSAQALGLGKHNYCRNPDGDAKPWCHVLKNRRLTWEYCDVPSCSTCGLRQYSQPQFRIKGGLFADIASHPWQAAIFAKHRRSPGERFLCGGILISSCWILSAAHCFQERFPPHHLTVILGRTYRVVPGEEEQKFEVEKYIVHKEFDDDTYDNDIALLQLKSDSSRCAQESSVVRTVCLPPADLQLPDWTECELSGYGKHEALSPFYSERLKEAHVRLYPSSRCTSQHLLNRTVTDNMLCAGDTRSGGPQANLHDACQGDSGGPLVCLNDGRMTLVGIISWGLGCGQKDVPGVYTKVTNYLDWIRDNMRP
The target in test [6] is Serine protease 1 (Homo sapiens, UniProt P07477). The test can be described thus: Tested for inhibitory activity against trypsin.
Chain of Serine protease 1 (P07477 whole entry): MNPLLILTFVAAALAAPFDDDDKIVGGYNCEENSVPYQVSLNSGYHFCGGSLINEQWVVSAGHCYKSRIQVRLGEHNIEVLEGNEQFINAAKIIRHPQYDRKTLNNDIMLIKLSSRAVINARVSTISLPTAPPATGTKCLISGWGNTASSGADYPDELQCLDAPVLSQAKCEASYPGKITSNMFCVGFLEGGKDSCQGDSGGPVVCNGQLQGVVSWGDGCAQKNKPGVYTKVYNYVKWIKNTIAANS
The target in test [7] is Prothrombin (Homo sapiens, UniProt P00734). Kind of test: Tested for inhibitory activity against thrombin.
The target in test [8] is T1, Coagulation factor X. Kind of test: Tested for inhibitory against Coagulation factor Xa at a concentration of 3.9 uM.

Chain of Plasminogen (P00747 97-580 limits assumed): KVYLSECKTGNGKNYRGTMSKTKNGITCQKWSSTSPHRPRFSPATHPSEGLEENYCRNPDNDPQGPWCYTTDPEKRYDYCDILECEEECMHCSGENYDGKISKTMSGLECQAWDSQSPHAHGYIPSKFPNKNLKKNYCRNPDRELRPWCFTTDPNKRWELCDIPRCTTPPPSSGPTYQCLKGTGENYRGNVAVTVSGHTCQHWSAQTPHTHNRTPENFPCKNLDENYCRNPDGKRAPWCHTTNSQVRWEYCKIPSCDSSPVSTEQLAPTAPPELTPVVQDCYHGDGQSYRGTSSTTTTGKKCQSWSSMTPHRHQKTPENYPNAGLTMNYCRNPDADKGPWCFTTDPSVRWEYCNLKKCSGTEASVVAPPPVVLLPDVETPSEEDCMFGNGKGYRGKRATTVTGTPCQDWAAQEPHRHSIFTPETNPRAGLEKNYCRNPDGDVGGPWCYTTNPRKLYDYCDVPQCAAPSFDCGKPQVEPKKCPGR
Chain of Plasminogen (P00747 581-810 limits assumed): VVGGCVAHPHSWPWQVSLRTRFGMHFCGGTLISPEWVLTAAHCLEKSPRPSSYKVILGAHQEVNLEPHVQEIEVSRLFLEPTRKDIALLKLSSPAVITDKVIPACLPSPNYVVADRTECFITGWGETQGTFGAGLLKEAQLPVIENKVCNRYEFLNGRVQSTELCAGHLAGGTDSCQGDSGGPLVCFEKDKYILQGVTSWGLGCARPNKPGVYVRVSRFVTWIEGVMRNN
T1 sequence (P00742 41-179 limits assumed): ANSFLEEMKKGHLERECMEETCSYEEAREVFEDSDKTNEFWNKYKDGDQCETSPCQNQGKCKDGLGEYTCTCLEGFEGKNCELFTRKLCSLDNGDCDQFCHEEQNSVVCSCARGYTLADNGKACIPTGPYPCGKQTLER
T1 sequence (P00742 235-488 limits assumed): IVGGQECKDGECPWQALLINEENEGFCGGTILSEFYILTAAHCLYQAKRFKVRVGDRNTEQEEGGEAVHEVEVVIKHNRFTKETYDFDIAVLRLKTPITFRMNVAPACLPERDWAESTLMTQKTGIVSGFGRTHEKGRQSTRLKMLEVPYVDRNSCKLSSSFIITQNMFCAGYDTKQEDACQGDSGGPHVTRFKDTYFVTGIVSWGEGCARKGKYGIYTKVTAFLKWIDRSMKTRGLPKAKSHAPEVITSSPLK
Chain of Vitamin K-dependent protein C (P04070 43-197 limits assumed): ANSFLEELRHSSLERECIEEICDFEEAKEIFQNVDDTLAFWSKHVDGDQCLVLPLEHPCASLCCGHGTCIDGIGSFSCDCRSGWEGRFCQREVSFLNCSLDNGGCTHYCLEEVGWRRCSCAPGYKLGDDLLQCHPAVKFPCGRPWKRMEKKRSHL
Chain of Vitamin K-dependent protein C (P04070 212-461 limits assumed): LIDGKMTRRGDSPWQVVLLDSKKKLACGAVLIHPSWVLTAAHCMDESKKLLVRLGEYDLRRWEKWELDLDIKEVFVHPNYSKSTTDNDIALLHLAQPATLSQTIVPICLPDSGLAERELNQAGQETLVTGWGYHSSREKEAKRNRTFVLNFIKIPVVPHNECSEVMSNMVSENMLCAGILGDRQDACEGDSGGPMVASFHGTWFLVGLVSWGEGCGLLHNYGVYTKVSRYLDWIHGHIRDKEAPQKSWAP

`N=C(N)c1cccc(CN2CCN(Cc3nc4ccc(Cl)cc4[nH]3)CC2=O)c1` came in with a Ki in test [1] above 1200 nM. Still for that read-out and setting: for `Cn1c(CN2CCN(Cc3ccc4c(N)ncnc4c3)C(=O)C2)nc2ccc(Cl)cc21` the value was 290 nM. As for `Nc1ncnc2cc(CN3CCN(Cc4nc5ccc(Cl)cc5[nH]4)CC3=O)ccc12`, the Ki was above 18 µM in test [2]; 10 nM in test [1]; 42 nM in test [3]; above 7.3 µM in test [4]; above 8.7 µM in test [5]; above 2900 nM in test [6]. Further, the Ki in test [7] was above 4 µM.

As for `Cc1ccc2nc(CN3CCN(Cc4ccc5c(N)ncnc5c4)C(=O)C3)[nH]c2c1`, the Ki in test [1] is 120 nM. As for `Nc1ncnc2cc(CN3CCN(Cc4nc5cc(Cl)ccc5o4)CC3=O)ccc12`, in test [1], the Ki was 1200 nM. Same read-out and setting: for `Nc1ncnc2cc(CN3CCN(Cc4nc5ccc(Cl)cc5o4)CC3=O)ccc12` the value was above 1200 nM. For `Nc1ncnc2cc(CN3CCN(Cc4nc5ccc(Br)cc5[nH]4)CC3=O)ccc12`, the Ki in test [1] amounted to 17 nM.

`Nc1ncnc2cc(CN3CCN(Cc4nc5ccc(C(F)(F)F)cc5[nH]4)CC3=O)ccc12` came in with a Ki in test [1] above 1200 nM. Same read-out and setting: the value for `Nc1ncnc2cc(CN3CCN(Cc4nc5cc(Cl)c(Cl)cc5[nH]4)CC3=O)ccc12` was above 1200 nM; that for `Nc1ncnc2cc(CN3CCN(Cc4nc5ccccc5[nH]4)CC3=O)ccc12` was 1200 nM. `Nc1ncnc2cc(CN3CCN(Cc4cc5cc(Cl)ccc5[nH]4)CC3=O)ccc12`: the inhibition constant (Ki) in test [2] was above 18 µM; in test [1] it was 24 nM; in test [4], above 7.3 µM; in test [5], above 8.7 µM; in test [6], above 2900 nM; in test [7] it was above 4 µM. In turn, `Nc1ncnc2cc(CN3CCN(Cc4cc5ccc(Cl)cc5[nH]4)CC3=O)ccc12` gave a Ki in test [1] of 390 nM. Still for that read-out and setting: for `Nc1ncnc2cc(CN3CCN(Cc4nc5cc(Cl)ccc5[nH]4)CC3)ccc12` the value was above 1200 nM. In the case of `N=C(N)c1cccc(CN2CCN(Cc3nc4cc(Cl)ccc4[nH]3)CC2=O)c1`, the inhibition in test [8] was 42%. `Nc1ncnc2cc(CN3CCN(Cc4nc5cc(OC(F)(F)F)ccc5[nH]4)CC3=O)ccc12` displayed a Ki in test [1] above 1200 nM. `Nc1ncnc2cc(CN3CCN(Cc4nc5ccc(Cl)cc5s4)CC3=O)ccc12` yielded an inhibitory constant (Ki) in test [1] above 1200 nM. As for `Nc1ncnc2cc(CN3CCN(S(=O)(=O)c4nc5ccc(Cl)cc5[nH]4)CC3=O)ccc12`, the Ki in test [2] was above 18 µM; in test [1], 3 nM; in test [4], above 7.3 µM; in test [5] it was above 8.7 µM; in test [6], above 2900 nM; in test [7], above 4 µM. Take `N=C(N)c1ccc(CN2CCN(Cc3nc4ccc(Cl)cc4[nH]3)CC2=O)cc1`: the Ki in test [1] was found to be 40 nM.

A word on the Ki: it is the equilibrium dissociation constant of an inhibitor or competing ligand from its target. Low values mean a stronger hold on the target, high ones a looser hold on the target. As usually defined, the inhibition is the share of the control response that was lost under treatment. Read a high inhibition as a strong effect.
